Values of other authors, collected in EP4684794A1, “TECHNICAL FORMULATION FOR ACTIVE ABSORPTION OF AMINO ACIDS BY HUMAN REPRODUCTIVE SYSTEM” (Xu, Haohan, priority 2023, dated 2024).

What was measured:
MC3T3-E1 osteoblasts = conditions: platelet-derived growth factor-BB, SAPK/JNK pathway
bone marrow macrophages = conditions: blocking the NF- κ B and MAPK signaling pathways

Structure (SMILES): O=C(O[C@@H]1Cc2c(O)cc(O)cc2O[C@@H]1c1cc(O)c(O)c(O)c1)c1cc(O)c(O)c(O)c1 [EGCG, epigallocatechin gallate]
- expression of IL-6 and IL-6 mRNA (MC3T3-E1 osteoblasts): reducing the expression of IL-6 and IL-6 mRNA
- LPS-mediated pro-inflammatory gene expression (bone marrow macrophages): may prevent LPS-mediated pro-inflammatory gene expression
- teratogenic or developmental toxicity (animal experiments): no teratogenic or developmental toxicity was observed
- genotoxicity (mouse body fluid analyses): no genotoxic effects
